Measured values: PMC12207802, “Discovery of coniferaldehyde as an inhibitor of caseinolytic protease to combat Staphylococcus aureus infections” (Molecular Medicine, 2025)

Target: T1, Caseinolytic protease P (ClpP) (Staphylococcus aureus, UniProt Q2G036)
T1 construct: clpP of S. aureus NCTC 8325-4 in pET-28a (+), Ni-purified
Assay: fluorogenic Suc-Leu-Tyr-AMC peptidase assay with purified ClpP; supported by fluorescence quenching (Ka), CETSA, CD and ClpXP GFP-SsrA degradation
Assay type: biochemical

T1 sequence (Q2G036 whole entry): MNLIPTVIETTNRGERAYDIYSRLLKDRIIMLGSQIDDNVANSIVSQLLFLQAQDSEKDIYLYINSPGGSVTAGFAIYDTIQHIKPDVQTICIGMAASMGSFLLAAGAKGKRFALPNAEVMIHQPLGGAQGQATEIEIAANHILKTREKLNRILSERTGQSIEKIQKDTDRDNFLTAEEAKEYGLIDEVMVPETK

SMILES: COc1cc(/C=C/C=O)ccc1O [CA, 4-hydroxy-3-methoxycinnamaldehyde]
- IC50: 103 µM
